In series [1] the test system is iBMECs derived from 610B1 strain. Put plainly: Relative TEER values of iBMECs induced and differentiated on each coating layer (day 10 of differentiation). The class given is cell-based, human. As to conditions: for TEER value compared with iBMECs induced and differentiated on Matrigel: coating 1 μg/cm^2, FIG. 2. The protocol:
A coating layer was formed using each of the above-described coating agents. Matrigel was diluted 30-fold with a maintenance medium for human iPS cells on ice, poured onto a well plate, and allowed to stand at 37° C. for 30 minutes or longer to form a coating layer. FBN, VTN-N, LN221F, LN411F, or LN511F was diluted with PBS so as to be 1 μg/cm^2, poured onto a well plate, and allowed to stand at 37° C. for 1 hour to 2 hours to form a coating layer. In addition, a mixture of Fibronectin and Collagen type IV was diluted with PBS so as to be 100 μg/mL and 400 μg/mL, respectively, poured onto a Transwell insert, and allowed to stand at 37° C. for 2 hours or longer to form a coating layer.
FIG. 1 is a scheme illustrating a protocol for differentiating human iPS cells into iBMECs. […] The differentiation induction was started in a state in which at the time of passage, the cells were seeded on a culture dish coated with each coating agent and cultured in StemSure hPSC medium containing […] FGF2 until the proportion of undifferentiated colonies reached about 60 to 70% (day 0 of differentiation). […]
TEER values of iBMECs (on day 10 of differentiation) derived from 610B1 strain, which cells had been induced and differentiated on Matrigel or FBN, VTN-N, LN221F, LN411F, or LN511F, were measured. The number of samples was 3, and relative TEER values of iBMECs induced and differentiated on FBN, VTN-N, LN221F, LN411F, or LN511F were determined based on the TEER values of iBMECs induced and differentiated on Matrigel (hereinafter, also referred to as “Matrigel-iBMECs”). In addition, for each of 610B1 strain or 648A1 strain, the TEER values of Matrigel-iBMECs or iBMECs induced and differentiated on LN221F (hereinafter, also referred to as “LN221F-iBMECs”) were measured from day 1 after seeding (day 9 of differentiation) to day 10 after seeding (day 18 of differentiation). The number of samples was set to 6, and the time-course change of the TEER values was determined. The TEER values were measured using a Millicell ERS-2 (chopstick type) according to the attached instructions. […]

Series [2] shares this test system. Description: Time-course change in TEER values, 610B1 strain. Format: cell-based, human. Conditions: FIG. 3. The protocol: (§1) A coating layer was formed using each of the above-described coating agents. Matrigel was diluted 30-fold with a maintenance medium for human iPS cells on ice, poured onto a well plate, and allowed to stand at 37° C. for 30 minutes or longer to form a coating layer. FBN, VTN-N, LN221F, LN411F, or LN511F was diluted with PBS so as to be 1 μg/cm^2, poured onto a well plate, and allowed to stand at 37° C. for 1 hour to 2 hours to form a coating layer. In addition, a mixture of Fibronectin and Collagen type IV was diluted with PBS so as to be 100 μg/mL and 400 μg/mL, respectively, poured onto a Transwell insert, and allowed to stand at 37° C. for 2 hours or longer to form a coating layer. […]
(§2) TEER values of iBMECs (on day 10 of differentiation) derived from 610B1 strain, which cells had been induced and differentiated on Matrigel or FBN, VTN-N, LN221F, LN411F, or LN511F, were measured. The number of samples was 3, and relative TEER values of iBMECs induced and differentiated on FBN, VTN-N, LN221F, LN411F, or LN511F were determined based on the TEER values of iBMECs induced and differentiated on Matrigel (hereinafter, also referred to as “Matrigel-iBMECs”). […] The number of samples was set to 6, and the time-course change of the TEER values was determined. The TEER values were measured using a Millicell ERS-2 (chopstick type) according to the attached instructions. […]

Series [3] relates to iBMECs derived from 648A1 strain. Description: Time-course change in TEER values, 648A1 strain. Conditions: FIG. 4. Format: cell-based, human. The protocol: as §1, §2
Series [4] has as its system iBMECs derived from 610B1 strain. Put plainly: Test for permeability of FD4 or LY, 610B1 strain. Conditions: 60 minutes, day 10 of differentiation. Format: cell-based, human. How it is done:
(§3) FD4 or LY permeability was tested on Matrigel-iBMECs and LN221F-iBMECs derived from each of 610B1 or 648A1 strain. The number of samples was 6. On day 10 of differentiation, the culture medium was replaced with a transport buffer (HBSS containing 10 mM HEPES solution), and the cells were cultured at 37° C. for 20 minutes. The transport buffer containing 1 mg/mL FD4 or 300 μM LY was added to the apical side. After incubation at 37° C. for 60 minutes, 100 μL of the solution was collected from the basolateral side. The volume of transport buffer was 300 μL on the apical side and 800 μL on the basal side. The fluorescence intensity of FD4 or LY was measured with a Synergy HTX multimode plate reader and analyzed by Gen5 data analysis software.

Series [5] has as its system iBMECs derived from 648A1 strain. Put plainly: Test for permeability of FD4 or LY, 648A1 strain. The class given is cell-based, human. As to conditions: 60 minutes, day 10 of differentiation. How it is done:
as §3

Series [6] relates to iBMECs derived from strain 610B1. Put plainly: Analysis of expression levels of BMEC marker genes by RT-q PCR. The class given is cell-based, human. As to conditions: CDHS, MDR1, BCRP, ZO-1, Occludin, GLUT1, LAT1; day 10 of differentiation, corrected with HPRT1, FIG. 7. How it is done:
Extraction was performed according to the attached instructions of Agencourt (registered trademark) RNAdvance Tissue Kit.
Complementary DNA (cDNA) was synthesized using ReverTra Ace (registered trademark) qPCR RT Master Mix according to the attached instructions.
The levels of gene expression in Matrigel-iBMECs or LN221F-iBMECs derived from strain 610B1 (on day 10 of differentiation) or human-derived primary BMECs (hereinafter, also referred to as “hBMECs”) were analyzed by RT-q PCR. The number of samples for Matrigel-iBMECs or LN221F-iBMECs was 3, and the number of samples for hBMECs was 1. RT-q PCR was performed with KAPA SYBR Fast qPCR Kit while using cDNA as a template according to the attached instructions. The results obtained were corrected using HPRT1 as an internal control. The relative expression levels of mRNA in LN221F-iBMECs or hBMECs were determined based on the expression levels of mRNA in Matrigel-iBMECs. […]

In series [7] the test system is iBMECs derived from 610B1 strain. Put plainly: Protein expression of BMEC markers by immunostaining. The class given is cell-based, human. As to conditions: CDH5, P-gp, BCRP, ZO-1, Occludin, Claudin 5; day 10 of differentiation, FIG. 8. How it is done:
Matrigel-iBMECs or LN221F-iBMECs (on day 10 of differentiation) derived from 610B1 strain were analyzed by immunostaining in order to analyze the expression levels and localizations of BMEC marker proteins. For Zonula Occludens-1 (ZO-1) and Occludin, the cells on a 96-well plate were fixed in 4 w/v % paraformaldehyde for 15 minutes at room temperature, washed twice with glycine-containing PBS, and then permeabilized with 0.1 w/v % Triton X-100-containing PBS for 25 minutes at room temperature. After blocking for 20 min at room temperature with 5% donkey serum, each primary antibody was used for reaction for 2 hours at room temperature. After washed three times with PBS, the cells were reacted with the secondary antibody, which had been diluted 200-fold, for 60 minutes at room temperature. At this time, 1 μg/mL DAPI as a nuclear staining reagent was mixed in the reaction at the same time. Thereafter, the cells were washed three times with PBS, and were analyzed with an Operetta high content imaging system. […]

The target in a further series is T1, P-gp (Homo sapiens, UniProt P08183).
T1 construct: endogenous in cells; host or cells: Matrigel-iBMECs or LN221F-iBMECs derived from 610B1 strain (iPS cells), day 10 of differentiation
T1 sequence (P08183 whole entry): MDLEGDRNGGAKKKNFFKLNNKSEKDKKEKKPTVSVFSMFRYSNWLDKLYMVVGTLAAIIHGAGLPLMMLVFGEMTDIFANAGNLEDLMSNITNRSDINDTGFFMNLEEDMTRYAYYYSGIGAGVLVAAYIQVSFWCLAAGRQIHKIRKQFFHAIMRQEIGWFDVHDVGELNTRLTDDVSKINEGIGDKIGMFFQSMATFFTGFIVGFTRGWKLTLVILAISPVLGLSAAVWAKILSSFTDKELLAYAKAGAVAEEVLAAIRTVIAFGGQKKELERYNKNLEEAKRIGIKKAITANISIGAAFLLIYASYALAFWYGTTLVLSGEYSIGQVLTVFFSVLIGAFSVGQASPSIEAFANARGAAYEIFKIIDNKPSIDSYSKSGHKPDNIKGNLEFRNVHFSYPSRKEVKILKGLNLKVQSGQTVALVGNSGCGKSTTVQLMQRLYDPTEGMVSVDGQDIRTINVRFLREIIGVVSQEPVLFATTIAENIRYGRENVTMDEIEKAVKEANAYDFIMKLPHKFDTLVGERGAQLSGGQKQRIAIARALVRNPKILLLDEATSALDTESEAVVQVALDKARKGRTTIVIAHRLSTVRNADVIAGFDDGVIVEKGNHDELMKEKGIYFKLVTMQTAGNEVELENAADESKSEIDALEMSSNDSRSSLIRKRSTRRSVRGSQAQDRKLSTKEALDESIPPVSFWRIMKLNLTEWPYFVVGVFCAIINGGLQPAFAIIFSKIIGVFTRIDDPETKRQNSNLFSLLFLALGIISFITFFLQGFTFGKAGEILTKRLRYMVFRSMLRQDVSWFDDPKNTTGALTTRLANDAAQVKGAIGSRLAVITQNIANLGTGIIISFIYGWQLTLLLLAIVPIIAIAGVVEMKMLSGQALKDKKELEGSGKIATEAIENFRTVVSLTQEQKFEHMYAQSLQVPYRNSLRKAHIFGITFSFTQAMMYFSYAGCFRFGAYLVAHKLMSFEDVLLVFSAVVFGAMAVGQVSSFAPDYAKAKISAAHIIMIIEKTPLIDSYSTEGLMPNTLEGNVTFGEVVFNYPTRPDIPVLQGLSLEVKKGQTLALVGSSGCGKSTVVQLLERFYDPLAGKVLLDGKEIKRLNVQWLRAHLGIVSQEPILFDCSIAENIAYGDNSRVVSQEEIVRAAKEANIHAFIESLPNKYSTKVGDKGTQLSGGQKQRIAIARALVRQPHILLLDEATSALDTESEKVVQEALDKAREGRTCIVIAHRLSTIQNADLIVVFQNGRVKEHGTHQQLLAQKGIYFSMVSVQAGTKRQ
Description: Substrate uptake test, P-gp function (rhodamine 123 with or without cyclosporine A). Conditions: 10 μM rhodamine 123, 10 μM cyclosporine A, 60 minutes at 37° C., FIG. 9. Format: cell-based. The protocol: (§4) For functional analysis of P-gp and BCRP as efflux transporters, Matrigel-iBMECs or LN221F-iBMECs (on day 10 of differentiation) derived from 610B1 strain were tested for substrate uptake. As the substrate, rhodamine 123 or Hoechst 33342 was used. The culture medium was removed and the cells on a 96-well plate were pre-incubated in a transport buffer for 15 minutes at 37° C. Note that the number of samples was 6. The cells were incubated, in the presence or absence of 10 μM cyclosporine A (CsA), an inhibitor of P-gp, or 20 μM Ko 143, an inhibitor of BCRP, in a transport buffer containing 10 μM rhodamine 123 or 10 μM Hoechst 33342 for 60 minutes at 37° C. The cells were then washed three times with PBS and lysed in PBS containing 5 w/v % Triton X-100. The fluorescence intensities of rhodamine 123 or Hoechst 33342 were measured with a Synergy HTX multimode plate reader and analyzed by Gen5 data analysis software.

The target in a further series is T2, BCRP (Homo sapiens, UniProt Q9UNQ0).
T2 construct: endogenous in cells; host or cells: Matrigel-iBMECs or LN221F-iBMECs derived from 610B1 strain (iPS cells), day 10 of differentiation
T2 sequence (Q9UNQ0 1-655): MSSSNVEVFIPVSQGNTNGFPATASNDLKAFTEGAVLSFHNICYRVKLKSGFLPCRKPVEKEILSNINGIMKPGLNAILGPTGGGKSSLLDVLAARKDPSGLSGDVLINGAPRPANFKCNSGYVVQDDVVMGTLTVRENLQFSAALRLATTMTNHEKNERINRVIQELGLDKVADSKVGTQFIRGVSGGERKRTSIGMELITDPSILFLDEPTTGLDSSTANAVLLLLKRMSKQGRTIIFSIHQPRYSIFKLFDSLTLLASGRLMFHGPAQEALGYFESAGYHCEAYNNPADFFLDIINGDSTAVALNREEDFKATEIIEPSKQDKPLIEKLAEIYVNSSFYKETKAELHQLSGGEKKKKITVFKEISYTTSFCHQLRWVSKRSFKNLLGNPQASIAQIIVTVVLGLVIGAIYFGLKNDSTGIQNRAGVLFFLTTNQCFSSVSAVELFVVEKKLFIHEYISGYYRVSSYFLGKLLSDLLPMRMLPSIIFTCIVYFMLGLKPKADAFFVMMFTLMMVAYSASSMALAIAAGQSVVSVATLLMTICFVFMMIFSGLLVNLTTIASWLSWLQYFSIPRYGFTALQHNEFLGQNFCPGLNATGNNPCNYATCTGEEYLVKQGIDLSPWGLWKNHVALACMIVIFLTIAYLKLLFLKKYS
Put plainly: Substrate uptake test, BCRP function (Hoechst 33342 with or without Ko 143). Format: cell-based. As to conditions: 10 μM Hoechst 33342, 20 μM Ko 143, 60 minutes at 37° C., FIG. 10. The protocol:
as §4

In the case of Laminin-221 fragment [LN221F], in [1] (FIG. 2), the “relative TEER value (Matrigel-iBMECs set to 1.0)” value is on record as “about 2 times”. In addition, the “TEER value compared with iBMECs induced and differentiated on Matrigel” value in [1] was “higher TEER value”. The “TEER value compared with Matrigel-iBMECs over a long period of time” value in [2] (day 1 to day 10 after seeding) and in series [3] (day 1 to day 10 after seeding) was “higher TEER value” throughout. Besides, the TEER value in series [2] (over a long period of time) and in [3] (over a long period of time) was ≥ 1000 Ω×cm^2 throughout. Besides, the “permeability coefficient of LY compared with Matrigel-iBMECs” value in series [4] (300 μM LY apical, FIG. 6) is listed as “lower permeability coefficient”; in [5] (300 μM LY apical, FIG. 6) it was “lower permeability coefficient”. Also, the “permeability coefficient of FD4 compared with Matrigel-iBMECs” value is given as “lower permeability coefficient” in [4] (1 mg/mL FD4 apical, FIG. 5) and “lower permeability coefficient” in series [5] (1 mg/mL FD4 apical, FIG. 5). In series [6], the “mRNA expression level of BMEC markers compared with Matrigel-iBMECs” value is “almost equivalent”. In addition, the “protein expression levels and localizations of BMEC markers compared with Matrigel-iBMECs” value in series [7] is on record as “almost equivalent”. Besides, the “accumulation of substrate in the presence of the inhibitor versus absence (P-gp function)” value on P-gp is “larger”. For the same substance, the “accumulation of substrate in the presence of the inhibitor versus absence (BCRP function)” value at BCRP is “larger”.

N-terminal Vitronectin [VTN-N]: the “TEER value compared with iBMECs induced and differentiated on Matrigel” value in series [1] was “higher TEER value”.

These data come from patent US12584906B2, “Coating agent for inducing differentiation of pluripotent stem cells into brain microvascular endothelium-like cells and use thereof” (PUBLIC UNIVERSITY CORPORATION NAGOYA CITY UNIVERSITY, priority 2020, dated 2026).
